These results are taken from patent US9475784B2, “4,6-diarylaminothiazines as BACE1 inhibitors and their use for the reduction of beta-amyloid production” (BRISTOL-MYERS SQUIBB COMPANY, priority 2012, dated 2016).

The IC50 is the concentration needed to halve the response being measured. A lower IC50 goes with greater potency.

Counter-ions that a name gives are not always drawn.

The first assay has as its system Aβ42 production in H4 cells stably transfected with APP751 containing the Swedish mutation (H4 APP751 SWE clone 8.20). In words: Cellular assay for inhibition of Aβ1-42 production (H4 APP751 SWE clone 8.20). Conditions: H4 APP751 SWE clone 8.20 cells, 19 h incubation; Table 5A, 6-alkyl and 6-substituted phenyl thiazine examples. The assay is classed as cell-based. The method, then: Cellular Assays for Inhibition of Aβ1-40 and Aβ1-42 Production
H4 cells stably transfected with APP751 containing the Swedish mutation (H4 APP751 SWE clone 8.20, developed at BMS) were maintained in log phase through twice weekly passage at a 1:20 split. […] Following incubation for 19 h in 5% CO2 at 37° C., plates were briefly centrifuged (1000 rpm, 5 min). A 10 μl aliquot from each well was transferred to a second assay plate (Costar 3709) for Aβ40 measurements. Antibody cocktails were freshly prepared by dilution into 40 mM Tris-HCl (pH 7.4) with 0.2% BSA and added to assay plates. For Aβ42 measurements, antibodies specific for the Aβ42 neoepitope (565, developed at BMS; conjugated to the Wallac reagent (Perkin Elmer)) and the N-terminal sequence of Aβ peptide (26D6, developed at SIBIA; conjugated to APC (Perkin Elmer)) were mixed and 20 μl of the mixture was added to each well of the incubated cell plate yielding a final concentration of 0.8 ng/well 565 and 75 ng/well 26D6. For the Aβ40 measurements, antibodies specific for the Aβ40 neoepitope (TSD, developed at BMS; conjugated to the Wallac reagent (Perkin Elmer)) and 26D6 as described above were mixed and 20 μl of the mixture was added to the 10 μl aliquots which had been removed previously from the cell plate yielding a final concentration of 1.6 ng/well TSD and 17.5 ng/well 26D6. Assay plates containing antibodies were sealed with aluminum foil and incubated overnight at 4° C. Signal was determined using a Viewlux counter (Perkin Elmer) and IC50 values determined using curve fitting in CurveMaster (Excel Fit based).
With `CC#Cc1cncc(-c2cc([C@@H]3C[C@@H](c4ccc(OC)c(OC)c4)SC(N)=N3)c(F)cc2F)c1` (racemic) [Example 32, (±)-4-(2,4-difluoro-5-(5-(prop-1-ynyl)pyridin-3-yl)phenyl)-6-(3,4-dimethoxyphenyl)-5,6-dihydro-4H-1,3-thiazin-2-amine], half-maximal inhibition (IC50) was put at 1000 nM.
Regarding `COc1ccc([C@@H]2C[C@@H](c3cc(-c4cncnc4)c(F)cc3F)N=C(N)S2)cc1OC` (single isomer, unassigned) [Example 1A], the IC50 came to 290 nM.
Same read-out and setting: the value for `COc1ccc([C@@H]2C[C@@H](c3cccc(-c4cncnc4)c3)N=C(N)S2)cc1OC` (single isomer, unassigned) [Example 3A] was 1100 nM.
The same measure, in the same setting: the value for `COc1ccc([C@@H]2C[C@@H](c3ccc(F)c(-c4cncnc4)c3)N=C(N)S2)cc1OC` (single isomer, unassigned) [Example 7A] was 350 nM; that for `COc1ccc([C@@H]2C[C@@H](c3cc(-c4cncnc4)ccc3F)N=C(N)S2)cc1OC` (single isomer, unassigned) [Example 8A] was 460 nM.

Still in this assay, the particulars now being: H4 APP751 SWE clone 8.20 cells, 19 h incubation; Table 5B, 6-heterocyclic thiazine examples.
For the molecule `Cc1oncc1[C@]1(C)C[C@@H](c2cc(-c3cncnc3)c(F)cc2F)N=C(N)S1` (racemic) [Example 33, (±)-4-(2,4-difluoro-5-(pyrimidin-5-yl)phenyl)-6-methyl-6-(5-methylisoxazol-4-yl)-5,6-dihydro-4H-1,3-thiazin-2-amine], the midpoint of inhibition, the IC50, lay at 180 nM.
Same read-out and setting: the value for `Cc1noc(C)c1[C@]1(C)C[C@@H](c2cc(-c3cncnc3)c(F)cc2F)N=C(N)S1` (racemic) [Example 34, (±)-4-(2,4-difluoro-5-(pyrimidin-5-yl)phenyl)-6-(3,5-dimethylisoxazol-4-yl)-6-methyl-5,6-dihydro-4H-1,3-thiazin-2-amine•TFA] was 2700 nM.
For `Cc1noc(C)c1[C@@H]1C[C@@H](c2cc(-c3cccc(C#N)c3)cs2)N=C(N)S1` (racemic) [Example 35, 3-(5-((±)-2-amino-6-(3,5-dimethylisoxazol-4-yl)-5,6-dihydro-4H-1,3-thiazin-4-yl)thiophen-3-yl)benzonitrile], the IC50 amounted to 300 nM.
Turning to `CC#Cc1cncc(-c2csc([C@@H]3C[C@@H](c4c(C)noc4C)SC(N)=N3)c2)c1` (racemic) [Example 36, (±)-6-(3,5-dimethylisoxazol-4-yl)-4-(4-(5-(prop-1-ynyl)pyridin-3-yl)thiophen-2-yl)-5,6-dihydro-4H-1,3-thiazin-2-amine], inhibition was half-maximal at 60 nM (IC50).
For `Cc1noc(C)c1[C@@H]1C[C@@H](c2cc(NC(=O)c3ccc(Br)cn3)ccc2F)N=C(N)S1` (racemic) [Example 37, N-(3-((±)-2-amino-6-(3,5-dimethylisoxazol-4-yl)-5,6-dihydro-4H-1,3-thiazin-4-yl)-4-fluorophenyl)-5-bromopicolinamide], the IC50 stood at 22 nM.
As to `Cc1noc(C)c1[C@@H]1C[C@@H](c2cc(NC(=O)c3ccc(Cl)cn3)ccc2F)N=C(N)S1` (racemic) [Example 38, N-(3-((±)-2-amino-6-(3,5-dimethylisoxazol-4-yl)-5,6-dihydro-4H-1,3-thiazin-4-yl)-4-fluorophenyl)-5-chloropicolinamide•TFA], the midpoint of inhibition, the IC50, lay at 11 nM.
The same measure, in the same setting: the figure for `Cc1noc(C)c1[C@@H]1C[C@@H](c2cc(-c3cncnc3)c(F)cc2F)N=C(N)S1` (single isomer, unassigned) [Example 29A] is 60 nM; for `Cc1noc(C)c1[C@@H]1C[C@@H](c2cc(NC(=O)c3ccc(Cl)cn3)ccc2F)N=C(N)S1` (single isomer, unassigned) [Example 38A] it is 5 nM; for `COc1ccc([C@@H]2C[C@@H](c3cccc(-c4cncnc4)c3)N=C(N)S2)cn1` [Example 10, (4S,6S)-6-(6-methoxypyridin-3-yl)-4-(3-(pyrimidin-5-yl)phenyl)-5,6-dihydro-4H-1,3-thiazin-2-amine•TFA] it is 2100 nM.
On the same count and under the same terms, the figure for `Cc1noc(C)c1[C@@H]1C[C@@](C)(c2cc(-c3cncnc3)c(F)cc2F)N=C(N)S1` [Example 39, (4S,6S)-4-(2,4-difluoro-5-(pyrimidin-5-yl)phenyl)-6-(3,5-dimethylisoxazol-4-yl)-4-methyl-5,6-dihydro-4H-1,3-thiazin-2-amine] is 8 nM.
Same read-out and setting: the figure for `Cc1ncc(-c2cc([C@]3(C)C[C@@H](c4c(C)noc4C)SC(N)=N3)c(F)cc2F)cn1` [Example 40, (4S,6S)-4-(2,4-difluoro-5-(2-methylpyrimidin-5-yl)phenyl)-6-(3,5-dimethylisoxazol-4-yl)-4-methyl-5,6-dihydro-4H-1,3-thiazin-2-amine] is 186 nM; for `Cc1nc([C@@H]2C[C@@](C)(c3cc(-c4cncnc4)c(F)cc3F)N=C(N)S2)c(C)o1` [Example 41, (4S,6S)-4-(2,4-difluoro-5-(pyrimidin-5-yl)phenyl)-6-(2,5-dimethyloxazol-4-yl)-4-methyl-5,6-dihydro-4H-1,3-thiazin-2-amine] it is 233 nM.
In turn, `Cc1nc(C)c([C@@H]2C[C@@](C)(c3cc(-c4cncnc4)c(F)cc3F)N=C(N)S2)o1` [Example 42, (4S,6S)-4-(2,4-difluoro-5-(pyrimidin-5-yl)phenyl)-6-(2,4-dimethyloxazol-5-yl)-4-methyl-5,6-dihydro-4H-1,3-thiazin-2-amine] showed an IC50 of 108 nM.
Same read-out and setting: the value for `Cc1nc(C)c([C@@H]2C[C@@](C)(c3cc(-c4cncnc4)c(F)cc3F)N=C(N)S2)s1` [Example 43, (4S,6S)-4-(2,4-difluoro-5-(pyrimidin-5-yl)phenyl)-6-(2,4-dimethylthiazol-5-yl)-4-methyl-5,6-dihydro-4H-1,3-thiazin-2-amine] was 210 nM; that for `CC#Cc1cncc(-c2cc(Cl)c([C@]3(C)C[C@@H](c4c(C)noc4C)SC(N)=N3)s2)c1` [Example 44, (4S,6S)-4-(3-chloro-5-(5-(prop-1-ynyl)pyridin-3-yl)thiophen-2-yl)-6-(3,5-dimethylisoxazol-4-yl)-4-methyl-5,6-dihydro-4H-1,3-thiazin-2-amine] was 30 nM; that for `Cc1noc(C)c1[C@@H]1C[C@@](C)(c2ccc(F)cc2F)N=C(N)S1` [Example 45, (4S,6S)-4-(2,4-difluorophenyl)-6-(3,5-dimethylisoxazol-4-yl)-4-methyl-5,6-dihydro-4H-1,3-thiazin-2-amine] was 150 nM.
Same read-out and setting: the value for `Cc1noc(C)c1[C@@H]1C[C@@](C)(c2cc(-c3cnc(F)nc3)c(F)cc2F)N=C(N)S1` [Example 46, (4S,6S)-4-(2,4-difluoro-5-(2-fluoropyrimidin-5-yl)phenyl)-6-(3,5-dimethylisoxazol-4-yl)-4-methyl-5,6-dihydro-4H-1,3-thiazin-2-amine] was 390 nM; that for `CC(=O)c1cc([C@]2(C)C[C@@H](c3c(C)noc3C)SC(N)=N2)c(F)cc1F` [Example 47, 1-(5-((4S,6S)-2-amino-6-(3,5-dimethylisoxazol-4-yl)-4-methyl-5,6-dihydro-4H-1,3-thiazin-4-yl)-2,4-difluorophenyl)ethanone] was 220 nM.
Still for that read-out and setting: the figure for `Cc1noc(CC(C)(C)O)c1[C@@H]1C[C@@](C)(c2ccc(F)cc2F)N=C(N)S1` [Example 48, 1-(4-((4S,6S)-2-amino-4-(2,4-difluorophenyl)-4-methyl-5,6-dihydro-4H-1,3-thiazin-6-yl)-3-methylisoxazol-5-yl)-2-methylpropan-2-ol] is 110 nM.
